Measured values published in publication PMC12549914 (Nature Communications, 2025).

How the values were obtained:
LYC1 = biological target: T1, LYC1 (Yarrowia lipolytica, UniProt P41929); assay: LC-MS of dansylated product; type: biochemical; conditions: with acetyl-CoA
T1 sequence (P41929 1-392): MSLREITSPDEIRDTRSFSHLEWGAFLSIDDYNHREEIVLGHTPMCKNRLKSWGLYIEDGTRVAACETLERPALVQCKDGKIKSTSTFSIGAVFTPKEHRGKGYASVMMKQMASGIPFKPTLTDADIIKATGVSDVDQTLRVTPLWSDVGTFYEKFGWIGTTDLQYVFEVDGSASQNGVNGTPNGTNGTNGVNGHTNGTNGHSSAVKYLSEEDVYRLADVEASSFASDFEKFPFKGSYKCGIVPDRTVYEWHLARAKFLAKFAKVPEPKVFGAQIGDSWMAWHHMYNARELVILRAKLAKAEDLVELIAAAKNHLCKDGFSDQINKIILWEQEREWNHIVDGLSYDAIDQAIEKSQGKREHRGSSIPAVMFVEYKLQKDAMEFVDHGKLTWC

RDW23166.1 = conditions: acetyl-CoA co-substrate presumed; conditions in supplement

NCCCC[C@H](N)C(=O)O [lysine]
LC-MS of dansylated product (LYC1): confirming that LYC1 catalyzes lysine acetylation specifically with acetyl-CoA as the substrate | Km (RDW23166.1): 6.21 mM
